Reference: patent US7598234B2, “Steroid derived antibiotics” (Brigham Young University, priority 1998, dated 2009)
In brackets after ≈: the same amount, converted by molar mass. Values belong to the molecule of their own block, whether it stands above or below them.

Tests used:
[1] = system: Klebsiella pneumonia ATCC 13883; experiment: MIC and MBC measurement with Klebsiella pneumoniae ATCC 13883; format: cell-based; conditions: Klebsiella pneumoniae, ATCC13883, Table 10, read-out: MBC
Source text: (§1) General: Microorganisms. Reference strains were purchased from the American Type Culture Collection (Rockville, Md.) or Bactrol disks from Difeo Laboratories (Detroit, Mich.). The following specific ATCC strains were used: 10798 Escherichia coli, 25922 Escherichia coli, 13883 Klebsiella pneumoniae, 27853 Pseudomonas aeruginosa, 14028 Salmonella typhimurium, 29212 Enterococcus faecalis, 25923 Staphylococcus aureus, 19615 Streptococcus pyogenes, and 90028 Candida albicans. Bacterial strains were maintained on Mueller-Hinton agar plates, and Candida albicans was maintained on Sabouraud Dextrose agar plates.
(§2) Tryptic soy broth (TSB) was made by dissolving 27.5 grams of tryptic soy broth without dextrose (DIFCO Laboratories) in 1 liter of deionized water and sterilizing at 121° C. for 15 minutes. Solid agar (TSA) plates were made by dissolving 6.4 grams of tryptic soy broth and 12 grams of agar (purified grade, Fischer Scientific) in 800 mL of deionized water and sterilizing at 121° C. for 20 minutes. Aliquots (20 mL) of the homogeneous solution were then poured in sterile plastic petri dishes (100×15 mm, Fisher Scientific). Solutions of compounds were made by dissolving the HCl salt of the respective compound into an appropriate amount of deionized and sterilized water followed by microfiltration.
(§3) Aliquots of 1 mL of the suspension were added to test tubes containing 1 mL TSB and incrementally varied concentrations of cholic acid derivatives and/or erythromycin or novobiocin. In the sensitization experiments, erythromycin or novobiocin were added 15 minutes later than the cholic acid derivatives. The samples were subjected to stationary incubation at 37° C. for 24 hours. Sample turbidity was determined by measuring absorption at 760 nm (HP 8453 UV-Visible Chemstation, Hewlett Packard). Additionally, an alliquot from each of the samples showing no measurable turbidity was subcultured on TSA plates (alliquots were diluted to provide fewer than 300 CFU). Colonies that grew on the subculture after overnight incubation were counted and the number of CFU/mL in the samples were calculated. The calculated values were compared to the number of CFU/mL in the original inoculum.

[2] = system: Escherichia coli ATCC 25922; experiment: Growth inhibition and FIC with rifampicin, Escherichia coli ATCC 25922; format: cell-based; conditions: Table 13, rifampicin (by order) at 0.5, 1.0 or 3.0 μg/mL
Procedure: (§4) Alternatively, “fractional inhibitory concentration (FIC)” is also useful for determination of synergy between the compounds of the invention, or the compounds in combination with known antibiotics. FICs can be performed by checkerboard titrations of compounds in one dimension of a microtiter plate, and of antibiotics in the other dimension, for example. The FIC is calculated by looking at the impact of one antibiotic on the MIC of the other and vice versa. […] Preferably, an FIC of less than 0.5 is obtained for synergism. As used herein, FIC can be determined as follows:
as §3
(§5) To measure permeabilization, the FIC values for compounds 1, 2, 5, 106, 10, 112, 133, and 134 with erythromycin, novobiocin, and rifampicin were determined. Concentrations of 0.5, 1.0 or 3.0 μg/mL of these antibiotics were used, and the concentrations of the cholic acid derivatives required to inhibit bacterial growth of Gram-negative strains were determined.

E. coli (ATCC 10798) [3] = experiment: MIC and MBC measurement with E. coli (ATCC 10798); format: cell-based, Escherichia coli; conditions: Table 1, E. coli (ATCC 10798)
How it was run: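 Strains kept on Mueller-Hinton agar (Candida on Sabouraud dextrose agar); suspension mixed 1:1 with TSB containing serial compound concentrations; 37° C., 24 h, no shaking; turbidity A760; clear tubes plated on TSA, colonies counted, CFU/mL vs inoculum.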

[4] = system: Salmonella typhimurium ATCC 14028; experiment: MIC and MBC measurement with Salmonella typhimurium ATCC 14028; format: cell-based; conditions: Salmonella enterica, Table 10, read-out: MBC
Source text: as §1, §2, §3

E. coli (ATCC 25922) [5] = experiment: MIC and MBC measurement with E. coli (ATCC 25922); format: cell-based, Escherichia coli; conditions: ATCC25922; Table 10; Escherichia coli ATCC 25922; read-out: MBC
How it was run: (§6)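 Bacteria incubated statically 24 h at 37 °C in TSB with graded compound concentrations (erythromycin or novobiocin added 15 min later in sensitization runs). MIC from turbidity at 760 nm; MBC by subculturing clear samples on TSA and comparing CFU/mL to inoculum.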

[6] = Procedure: (§7) Minimum inhibition concentrations (MIC) and minimum hemolytic concentrations (MHC) were measured as described in Li et al., Antimicrob. Agents. Chemother., 1999, 43, 1347.
[7] = system: Klebsiella pneumonia ATCC 13883; experiment: Growth inhibition and FIC with rifampicin, Klebsiella pneumoniae ATCC 13883; format: cell-based
Procedure: as §4, §3, §5

[8] = system: Pseudomonas aeruginosa (ATCC 27853); experiment: Sensitization to erythromycin, Pseudomonas aeruginosa (ATCC 27853); format: cell-based
How it was run: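 Tube checkerboard in TSB: cholic acid derivatives added, then erythromycin or novobiocin 15 min later, antibiotics at 0.5, 1.0 or 3.0 μg/mL; stationary 37 °C, 24 h. Turbidity read at 760 nm; clear samples subcultured on TSA for CFU counts versus inoculum; FIC derived for synergy.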

[9] = system: Salmonella typhimurium ATCC 14028; experiment: Growth inhibition and FIC with rifampicin, Salmonella typhimurium ATCC 14028; format: cell-based; conditions: Table 13; Salmonella typhimurium ATCC 14028^b; rifampicin (by order) at 0.5, 1.0 or 3.0 μg/mL
Procedure: as §4, §3, §5

[10] = system: Klebsiella pneumonia ATCC 13883; experiment: Growth inhibition and FIC with novobiocin, Klebsiella pneumoniae ATCC 13883; format: cell-based; conditions: Table 12, novobiocin (by order) at 0.5, 1.0 or 3.0 μg/mL
Procedure: as §4, §3, §5

[11] = system: Pseudomonas aeruginosa ATCC 27853; experiment: Growth inhibition and FIC with rifampicin, Pseudomonas aeruginosa ATCC 27853; format: cell-based; conditions: Table 13; Pseudomonas aeruginosa ATCC 27853^b; rifampicin (by order) at 0.5, 1.0 or 3.0 μg/mL
Procedure: as §4, §3, §5

E. coli (ATCC 25922) [12] = experiment: Sensitization to erythromycin, E. coli (ATCC 25922); format: cell-based, Escherichia coli; conditions: Table 11; Escherichia coli ATCC 25922; erythromycin (by order) at 0.5, 1.0 or 3.0 μg/mL
Procedure: FICs can be performed by checkerboard titrations of compounds in one dimension of a microtiter plate, and of antibiotics in the other dimension, for example. The FIC is calculated by looking at the impact of one antibiotic on the MIC of the other and vice versa. […] Preferably, an FIC of less than 0.5 is obtained for synergism. As used herein, FIC can be determined as follows:
as §3
Concentrations of 0.5, 1.0 or 3.0 μg/mL of these antibiotics were used, and the concentrations of the cholic acid derivatives required to inhibit bacterial growth of Gram-negative strains were determined.
as §7

E. coli (ATCC 10798) [13] = experiment: Sensitization to erythromycin (concentration lowering the MIC of erythromycin), E. coli (ATCC 10798); format: cell-based, Escherichia coli; conditions: Table 2, E. coli (ATCC 10798)
[14] = system: Staphylococcus aureus ATCC 25923; experiment: MIC and MBC measurement with Staphylococcus aureus ATCC 25923; format: cell-based; conditions: ATCC25923; Table 10; Staphylococcus aureus ATCC 25923; read-out: MIC
How it was run: as §6

[15] = system: Salmonella typhimurium ATCC 14028; experiment: Growth inhibition and FIC with novobiocin, Salmonella typhimurium ATCC 14028; format: cell-based; conditions: Table 12, novobiocin (by order) at 0.5, 1.0 or 3.0 μg/mL
Procedure: as §4, §3, §5

[16] = system: Pseudomonas aeruginosa (ATCC 27853); experiment: Sensitization to novobiocin, Pseudomonas aeruginosa (ATCC 27853); format: cell-based; conditions: Table 12; Pseudomonas aeruginosa ATCC 27853; novobiocin (by order) at 0.5, 1.0 or 3.0 μg/mL
Procedure: as §4
as §3, with “inoculum. […]” for “inoculum.”
as §5

Gram-negative bacteria [17] = experiment: Sensitization to novobiocin, ester and amide side chain compounds (Table 14); format: cell-based; conditions: strain not given
Procedure: as §3
(§8) Ability to permeabilize outer membrane: Compounds 11, 106, and 108-114 (FIG. 1) were tested for antibiotic activity. They were also tested for the ability to permeabilize the outer membrane of Gram-negative bacteria, causing sensitization to hydrophobic antibiotics that cannot cross the outer membrane. The permeabilization of the outer membrane was measured using erythromycin and novobiocin.
(§9) Ester and amide side chains: Additional compounds, for example, compounds with amide and ester side chains, were tested.

Gram-negative bacteria [18] = experiment: MIC of ester and amide side chain compounds (Table 14); format: cell-based; conditions: strain not given
Procedure: as §3, §9

Gram-negative bacteria [19] = experiment: Sensitization to erythromycin, ester and amide side chain compounds (Table 14); format: cell-based; conditions: Table 14; strain not given
Procedure: as §3, §8, §9

Remark: listed apart in the source

Structure (SMILES): C[C@H](CCCO)[C@H]1CC[C@H]2[C@@H]3[C@H](OCCCN)C[C@@H]4C[C@H](OCCCN)CC[C@]4(C)[C@H]3C[C@H](OCCCN)[C@]12C [Compound 10]
MBC [1]: 50 µg/mL (≈ 88.4 µM)
concentration required to inhibit bacterial growth with antibiotic [2]: 0.70 µg/mL
MBC (E. coli (ATCC 10798) [3]; Escherichia coli, ATCC10798, read-out: MBC): 60 µg/mL (≈ 106 µM)
MBC [4]: > 17 µg/mL
MBC (E. coli (ATCC 25922) [5]): 40 µg/mL (≈ 70.7 µM)
MHC [6]: 100 µg/mL
FIC ([7]; Table 13, rifampicin (by order)): 0.030
concentration required to inhibit bacterial growth with antibiotic ([7]; Table 13, rifampicin (by order) at 0.5, 1.0 or 3.0 μg/mL): 0.16 µg/mL
MIC: concentration required to lower the MIC of erythromycin from 240 μg/mL to 5 μg/mL ([8]; Table 7, P. aureginosa (ATCC 27853)): 7 µg/mL
concentration required to inhibit bacterial growth with antibiotic ([8]; Table 11, Pseudomonas aeruginosa ATCC 27853, erythromycin (by order) at 0.5, 1.0 or 3.0 μg/mL): 2.1 µg/mL
concentration required to inhibit bacterial growth with antibiotic [9]: 0.55 µg/mL
concentration required to inhibit bacterial growth with antibiotic [10]: 0.73 µg/mL
concentration required to inhibit bacterial growth with antibiotic [11]: 0.84 µg/mL
concentration required to inhibit bacterial growth with antibiotic (E. coli (ATCC 25922) [12]): 1.5 µg/mL
MIC: concentration required to lower the MIC of erythromycin from 70 μg/mL to 1 μg/mL (E. coli (ATCC 10798) [13]): 2 µg/mL
MBC (with erythromycin) (E. coli (ATCC 10798) [13]; erythromycin sensitization): 50 µg/mL
MIC [14]: 2 µg/mL (≈ 3.53 µM)
concentration required to inhibit bacterial growth with antibiotic [15]: 1.8 µg/mL
concentration required to inhibit bacterial growth with antibiotic [16]: 5.3 µg/mL

Structure (SMILES): C[C@H](CCCN(C)Cc1ccccc1)[C@H]1CC[C@H]2[C@@H]3[C@H](OC(=O)CCN)C[C@@H]4C[C@H](OC(=O)CCN)CC[C@]4(C)[C@H]3C[C@H](OC(=O)CCN)[C@]12C.Cl.Cl.Cl.Cl [Compound 7]
MIC (E. coli (ATCC 10798) [3]): 28 µg/mL
b: concentration of cholic acid derivatives required to lower MIC of novobiocin to 1 μg/ML (Gram-negative bacteria [17]): 13 µg/mL
MIC (Gram-negative bacteria [18]): 70 µg/mL
a: concentration of cholic acid derivatives required to lower MIC of erythromycin to 1 μg/ML (Gram-negative bacteria [19]): 3 µg/mL
MIC: concentration required to lower the MIC of erythromycin from 70 μg/mL to 1 μg/mL (E. coli (ATCC 10798) [13]): 2.5 µg/mL

melting point: 200 to 202 °C
Structure (SMILES): C[C@H](CCCO)C1CC[C@H]2[C@@H]3[C@H](N)C[C@@H]4C[C@H](N)CC[C@]4(C)[C@H]3C[C@H](N)[C@]12C (stereo partly shown)
